The nature of test [1]: Color retention after shampoo treatment, peptide as sealant with Acid Red 33 dye. Further details: species or system human. To be noted: 0.50 wt % Acid Red 33, peptide 0.25 wt %, 30 min contact, after one shampoo treatment; vs uncolored hair; larger = better color retention; dye alone 19.63. How it is done: The peptides used in this Example were prepared as described in Examples 1-3. The color retention was quantified using a spectrophotometric measurement technique.
A peptide given as SEQ ID NO:41, SEQ ID NO:42, or SEQ ID NO:43 (38 mg), produced via fermentation as described in Examples 1-3, was added to 15 g of an aqueous 0.50 wt % solution of Acid Red 33 (Abbey Color, Philadelphia, Pa.) and the solution was allowed to stir for 1 h. A natural white hair tress (1 cm wide, potted, International Hair Importers & Products Inc., Bellerose, N.Y.) was inserted into a 15 mm×125 mm test tube and 13 mL of the peptide/dye mixture was injected into the test tube. The hair tress was immersed in contact with the colorant solution for 30 min and the colorant solution was agitated using a magnetic stirrer. The tress was removed, allowed to drip dry, and then air dried for 30 min.
The hair tress was then subjected to a water rinse using copious amounts of deionized water, followed by a shampoo treatment with embrocation for 30 seconds. The shampoo treatment involved the application of Pantene Pro-V Sheer Volume shampoo (Proctor & Gamble, Cincinnati, Ohio) to the hair as follows. A quarter-sized drop of the shampoo was distributed evenly over the hair tress and then was massaged aggressively into the hair for 30 sec, after which the hair tress was rinsed with water to remove the shampoo. The hair tress was then dried at room temperature. The entire procedure described above was repeated without the addition of the hair-binding peptide to serve as a control.
The color intensity after the shampoo treatment was measured using an X-Rite® SP78™ Sphere Spectrophotometer (X-Rite, Inc., Grandville, Mich.), by placing the colored hair sample into the photosensor and calculating L*, a* and b* parameters representing the photometer response. An initial baseline L* value was measured for the uncolored hair and all measurements were the average of three individual determinations. Delta E values were calculated using equation 1 below: […]

Test [2] is described as follows: Color retention after shampoo treatment, peptide as sealant with HC Blue 26 dye. Further details: species or system human. The note with it: 0.50 wt % HC Blue 26, peptide 0.25 wt %, 90 min contact, after 6 shampoo treatments; dye alone 25.75. As for the experimental part:
The peptides used in this Example were prepared as described in Examples 1 and 2. The color retention was quantified using a spectrophotometric measurement technique. A peptide given as SEQ ID NO:41 or SEQ ID NO:42 (38 mg), produced via fermentation as described in Examples 1 and 2, was added to 15 g of an aqueous 0.50 wt % solution of HC Blue 26 (Aldrich) and the solution was allowed to stir for 1 h. A natural white hair tress (1 cm wide, potted, International Hair Importers & Products Inc., Bellerose, N.Y.) was inserted into a 15 mm×125 mm test tube and 13 mL of the peptide/dye mixture was injected into the test tube. The hair tress was immersed in contact with the colorant solution for 90 min and the colorant solution was agitated using a magnetic stirrer. The tress was removed, allowed to drip dry, and then air dried for 30 min. The hair tress was then subjected to a water rinse using copious amounts of deionized water, followed by a shampoo treatment with embrocation for 30 seconds. The shampoo treatment involved the application of Pantene Pro-V Sheer Volume shampoo (Proctor & Gamble, Cincinnati, Ohio) to the hair as follows. […] The color intensity after the shampoo was measured as described in Examples 4-7.

The nature of test [3]: HPLC analysis of peptide uptake by hair. In kind it is binding, human. To be noted: no dye; for % Uptake time = 0 min / % Uptake time = 30 min / % Uptake time = 60 min: 20 mM Tris pH 7.2, 0.15 M NaCl, room temperature, peptide 0.1 mg/mL (IB5A, A5) or 0.05 mg/mL (HC 71, HC 74); for uptake onto hair compared with the same peptide without the charged groups (in words): HC 71 vs IB5, HC 74 vs A5. How it is done: The purpose of this Example was to compare the speed of uptake by measuring the amount of various peptides including peptides of the invention bound to hair at different time points using a high performance liquid chromatography (HPLC) method. The peptides, HC 71, HC 74, IB5 (the hair-binding peptide sequence in HC 71), and A5 (the hair-binding peptide sequence in HC 74), were dissolved in 10 mL of 20 mM Tris, pH 7.2 buffer containing 0.15 M NaCl to give the peptide concentrations shown in Table 11. Natural white hair, 0.54 g, (International Hair Importers & Products Inc., Bellerose, N.Y.) was pre-equilibrated with 10 mL of Tris buffer for 30 min with mixing at room temperature. Then, the buffer was drained from the hair and 10 mL of one of the peptide solutions was added. The hair was incubated with the peptide solution at room temperature without mixing and samples were taken at 0, 30 and 60 min for HPLC analysis. For peptide uptake measurements in the presence of Acid Red 33 dye, the peptide solution was mixed 1:1 with an aqueous solution of the dye (0.5 wt %). Natural white hair (0.65 g) pre-wet with deionized water, was added to the peptide solutions and the solutions were incubated at room temperature without mixing. Samples were taken at time 0, 30, and 60 min for analysis by HPLC. The samples were analyzed using HPLC to determine the concentration of the peptide remaining in solution, and by difference, the amount of peptide taken up by the hair. The HPLC analysis was done using an Agilent liquid chromatograph (Agilent Technologies Inc., Wilmington, Del.) with a 5 μm Zorbax Eclipse XDB-C18 column (Agilent Technologies Inc.). The sample was diluted with distilled water containing 0.1% trifluoroacetic acid (typically a 10-fold dilution), and 5 to 50 μL was injected using a 100 μL injection loop. A solvent gradient elution was used with two solvents: Solvent A, consisting of acetonitrile with 0.1% aqueous trifluoracetic acid, and Solvent B, consisting of water with 0.1% trifluoroacetic acid. The gradient was from 10% acetonitrile to 80% acetonitrile at a rate of 1%/min over a period of 70 min. The flow rate was 1.25 mL/min. Detection was done with a photodiode array detector at 218 nm, 230 nm, and 278 nm.

In the case of “P-EQISGSLVAAPW-KRKRK-D (PEQISGSLVAAPWKRKRKD; Peptide having affinity for hair) [HC 74]”, the “Delta E” value in test [1] amounted to 28.68. Further, the “Delta E” value in test [2] was 30.36. Also, in test [3], the “% Uptake time = 0 min” value came to 0%, the “% Uptake time = 30 min” value was found to be 22%, the “% Uptake time = 60 min” value is listed as 27% and the “uptake onto hair compared with the same peptide without the charged groups (in words)” value is listed as “significantly faster uptake onto hair”.
“P-TPPELLHGAPRS-KRKRK-D (PTPPELLHGAPRSKRKRKD; Peptide having affinity for hair) [HC 71]”: the “Delta E” value in test [1] is reported as 25.80. In addition, the “Delta E” value in test [2] is reported as 27.83. Further, in test [3], the “% Uptake time = 0 min” value was 0%, the “% Uptake time = 30 min” value was determined as 69%, the “% Uptake time = 60 min” value is on record as 75% and the “uptake onto hair compared with the same peptide without the charged groups (in words)” value is listed as “significantly faster uptake onto hair”.

For the origin of these results see patent US20080280810A1, “PEPTIDES HAVING AFFINITY FOR BODY SURFACES” (priority 2006, published 2008).
